Reference: patent US20240025920A1, “SALT FORM USED AS CDC7 INHIBITOR AND CRYSTAL FORM THEREOF” (Chia Tai Tianqing Pharmaceutical Group Co., Ltd., priority 2020, published 2024)
Where two headings read alike, the source gives them in different places.

How the values were obtained:
[1] = biological target: CDC7/DBF4 kinase (Homo sapiens, UniProt O00311); assay: ADP-Glo kinase assay, inhibition of CDC7/DBF4 kinase activity; type: biochemical; settings: for IC50: CDC7/DBF4, 10 μM ATP
From the text: The ADP-Glo™ kinase assay is a chemiluminescent kinase assay. The reaction of kinase with substrate requires ATP to provide energy, thereby converting ATP into ADP. The enzymatic activity is reflected by the amount of ADP produced in the reaction. In the assay, ADP is converted into ATP, and then ATP binds to Ultra-Glo™ Luciferase with light emitted; the intensity of light emission is directly proportional to the amount of ADP.
The ADP-Glo™ assay was used to investigate the inhibitory effect of crystal form A of the test compound of formula (II) on the activity of CDC7/DBF4 kinase. The highest concentration of the test compound was 10 μM, and 5-fold serial dilution was performed to obtain 8 concentration points. The compound was re-tested on a different day, and each test was performed in duplicate.
• 1) Preparation of 10 mM DTT (freshly prepared at the time of use) • 1 μL of 0.1 M DTT was measured out and 9 μL of deionized water was added. • 2) 2× assay buffer (freshly prepared at the time of use) • 168 μL of Kinase assay buffer III was measured out and 2.5-fold diluted with 248 μL of deionized water, and 4.2 μL of 10 mM DTT was added. The buffer was kept on ice before use. • 3) 1× assay buffer (freshly prepared at the time of use) • 250 μL of 2× assay buffer was measured out and diluted into 1× assay buffer by adding 250 μL of deionized water. The buffer was kept on ice before use. • 4) ADP-Glo Kinase Assay
The kit contains an ADP-Glo™ reagent, a kinase assay solution, a kinase assay solution matrix and a 10 mM ATP stock solution.
Preparation of the kinase assay solution: The kinase assay buffer and the kinase assay solution matrix were equilibrated to room temperature and then mixed. After complete dissolution, the solution was ready. The unused solution should be aliquoted and stored at −20° C.
ADP-Glo™ reagent: The reagent was equilibrated to room temperature at the time of the first use. The unused solution should be aliquoted and stored at −20° C.
• 1) 10 mM test compound was diluted to 1 mM with 100% DMSO: 5 μL of 10 mM test compound was added to 45 μL of 100% DMSO; the concentration of the compound dilution was 1 mM, and the dilution was put into row A of a 384-well compound plate as the highest concentration. • 2) To row B through row H of the 384-well compound plate was added 20 μL of 100% DMSO. • 3) From row A, 5 μL of compound was transferred to row B, and the mixture was well mixed. Then 5 μL of compound was transferred from row B to row C, and the mixture was well mixed. This procedure was repeated to row H to complete the serial dilution of the compound. • 4) Preparation of compound working solutions: 0.5 μL/well of compound was transferred to a new 384-well compound plate, and 9.5 μL of 1× assay buffer was added. […]

[2] = test system: COLO205 cells; assay: CellTiter-Glo cell viability assay, proliferation of COLO205 cells; type: cell-based, Human; settings: for IC50: Homo sapiens, COLO 205, 72 h, COLO205, 3 days incubation
From the text: In the assay, the inhibitory effect of crystal form A of the compound of formula (II) on the proliferation of colorectal cell COLO205 that highly expresses Cdc7 was investigated.
CellTiter-Glo® Luminescent Cell Viability Assay is a homogeneous rapid assay for the viability of living cells in cultures by ATP quantification. ATP is an indicator of the metabolism of living cells. Cell lysis and the luminescence signals generated are directly proportional to the amount of ATP that exists, and the amount of ATP is directly proportional to the number of living cells in cultures.
Cells having achieved 80%-90% cell fusion were digested with pancreatin. After the digestion was stopped with 1 mL of culture medium, the cells were transferred to a new culture dish according to a proper proportion, and 10 mL of fresh cell culture medium was added to the culture dish. Then the cell culture dish was placed in a 37° C., 5% CO2 incubator to continue the culture.
The compound was diluted to 2 mM with 100% DMSO—that is, 5 μL of 10 mM compound stock solution was transferred to column 1 of a 96-well compound plate, 20 μL of 100% DMSO was then added, and the mixture was well mixed. To column 2 through column 9 of the 96-well compound plate was added 20 μL of 100% DMSO. From column 1, 10 μL of compound was transferred to column 2, and the mixture was well mixed. Then 10 μL of compound was transferred from column 2 to column 3, and the mixture was well mixed. This procedure was repeated to column 9 to complete the serial dilution of the compound. Preparation of compound working solutions: From the compound plate, 2 μL/well of compound was transferred to a new 96-well compound plate, and 78 μL/well of cell culture medium was added. To a negative control well was added 2 μL of 100% DMSO followed by 78 μL of cell culture medium. The compound concentration was the final concentration. The blank control well was a culture medium well containing no cells. The negative control was […].
COLO205 cells having achieved 80%-90% cell fusion were digested with pancreatin and counted. After counting, the cell suspension was diluted with cell culture medium to a desired density. To each well of a 96-well cell culture plate was inoculated 80 μL of cell suspension. […]
After the incubation, 100 μL of CTG assay reagent was added to each well of the cell plate, and the plate was incubated at 25° C. for 10 min. After the incubation, luminescence signals were measured on Envision.
The signal value of the background blank control well was subtracted from the measured signal value of each group for standardization. […]
The percent inhibition was calculated from the original readings according to the calculation formula. A graph was then plotted using Prism and the IC50 of the compound was calculated.

[3] = Stability test under accelerated conditions (HPLC related substances, appearance, crystal form, ee); type: physicochemical; design: impurity at RRT 0.31 / impurity at RRT 1.40 / impurity at RRT 0.23 / impurity at RRT 0.91 / impurity at RRT 0.98 / impurity at RRT 0.99 / impurity at RRT 1.08: unit not given here
Description: Instrument model: Agilent 1200 high performance liquid chromatograph
50 mg of crystal form A of the compound of formula (II) was measured and placed in a dry, clean glass bottle, spread into a thin layer, and left to stand under accelerated conditions (60° C., 25/92.5% RH, 40° C./75% RH and 60° C./75% RH). The sample was completely exposed, and the bottle was covered with aluminum foil in which holes are pricked. Samples were taken at 5 days, 10 days, 1 month, 2 months and 3 months and analyzed.

[4] = Hygroscopicity test (25° C., saturated ammonium chloride solution, 24 h); type: physicochemical; settings: 25° C./80% RH criteria
Description: A dry glass weighing bottle with a lid was placed in a dryer with saturated ammonium chloride solution placed in the lower part, and the weighing bottle was left to stand uncovered. A lid was put on the dryer, and the dryer was placed in a 25° C. box and left to stand overnight. After being left to stand overnight, the weighing bottle was taken out and precisely weighed, and the weight was denoted by m1.
A proper amount of crystal form A of the compound of formula (II) was measured out and spread in the weighed measuring bottle (the sample was about 1 mm thick). The measuring bottled was then precisely weighed, and the weight was denoted by m2.
The weighing bottle, together with its lid, was placed in a dryer with saturated ammonium chloride solution placed in the lower part and left to stand uncovered. A lid was put on the dryer, and the dryer was placed in a 25° C. box and left to stand for 24 h. After 24 h of sitting, the lid was put on the weighing bottle and the bottle was taken out and precisely weighed, the weight denoted by m3.
The hygroscopic weight gain was calculated using the formula: percent weight gain=100%×(m3−m2)/(m2−m1).

Sequence of CDC7/DBF4 kinase (O00311 whole entry): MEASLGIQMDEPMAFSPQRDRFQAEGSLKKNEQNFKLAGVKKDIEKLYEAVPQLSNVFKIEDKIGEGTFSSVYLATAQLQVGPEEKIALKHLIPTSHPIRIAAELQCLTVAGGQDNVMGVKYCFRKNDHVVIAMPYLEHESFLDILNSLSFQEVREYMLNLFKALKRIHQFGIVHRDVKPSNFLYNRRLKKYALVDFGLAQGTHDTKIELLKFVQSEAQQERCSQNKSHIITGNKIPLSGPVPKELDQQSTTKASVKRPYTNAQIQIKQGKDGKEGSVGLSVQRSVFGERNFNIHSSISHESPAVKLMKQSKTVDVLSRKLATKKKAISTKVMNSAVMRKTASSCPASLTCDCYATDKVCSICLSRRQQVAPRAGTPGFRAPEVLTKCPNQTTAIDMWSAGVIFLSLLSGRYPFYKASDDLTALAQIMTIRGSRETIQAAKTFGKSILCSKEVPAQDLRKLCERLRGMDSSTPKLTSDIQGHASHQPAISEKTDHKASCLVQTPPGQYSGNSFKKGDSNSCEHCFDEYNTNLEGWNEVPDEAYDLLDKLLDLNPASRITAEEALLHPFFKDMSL
Sequence of CDC7/DBF4 kinase (Q9UBU7 whole entry partner): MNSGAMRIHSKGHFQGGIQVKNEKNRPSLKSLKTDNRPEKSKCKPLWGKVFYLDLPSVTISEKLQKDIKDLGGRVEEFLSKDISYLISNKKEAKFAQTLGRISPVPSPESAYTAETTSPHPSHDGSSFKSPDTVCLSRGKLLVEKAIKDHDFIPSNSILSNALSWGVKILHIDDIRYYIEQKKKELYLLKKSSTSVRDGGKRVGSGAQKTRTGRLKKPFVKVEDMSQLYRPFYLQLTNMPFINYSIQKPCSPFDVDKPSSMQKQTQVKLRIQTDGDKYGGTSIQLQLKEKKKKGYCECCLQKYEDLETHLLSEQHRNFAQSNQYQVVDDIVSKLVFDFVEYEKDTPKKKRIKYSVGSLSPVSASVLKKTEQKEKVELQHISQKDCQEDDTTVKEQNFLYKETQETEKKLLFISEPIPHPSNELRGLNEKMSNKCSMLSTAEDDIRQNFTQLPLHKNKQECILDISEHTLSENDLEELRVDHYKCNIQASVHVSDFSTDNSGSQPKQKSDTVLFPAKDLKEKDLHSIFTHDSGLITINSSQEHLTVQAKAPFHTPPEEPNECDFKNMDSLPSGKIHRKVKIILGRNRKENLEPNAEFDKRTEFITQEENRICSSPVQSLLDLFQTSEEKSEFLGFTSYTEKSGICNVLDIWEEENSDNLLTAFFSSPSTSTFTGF

Which results are given for `O=C(O)/C=C\C(=O)O.O=c1[nH]c([C@@H]2CC3CCN2CC3)nc2c3c(sc12)-c1cn[nH]c1CCC3`?
IC50 ([1]; first assay, read-out: IC50 (nM) First assay): 3.49 nM; IC50 ([1]; mean of two assays, read-out: IC50 (nM) Mean): 2.92 nM; IC50 ([1]; second assay, read-out: IC50 (nM) Second assay): 2.35 nM; inhibitory effect on enzyme CDC7/DBF4 ([1]; conclusion in words): relatively strong inhibitory effect; IC50 ([2]; first assay, read-out: COLO205(nM) IC50 First assay): 14.3 nM; IC50 ([2]; mean of two assays, read-out: COLO205(nM) IC50 Mean): 14.5 nM; IC50 ([2]; second assay, read-out: COLO205(nM) IC50 Second assay): 14.7 nM; inhibitory effect on COLO205 cells ([2]; conclusion in words): relatively strong inhibitory effect; Appearance ([3]; 0 days): White; ee % ([3]; 0 days): 99.028%; impurity at RRT 0.31 ([3]; 0 days): 0.02; Appearance ([3]; 25/92.5% RH-5 days): White; TRS(%) total impurity content ([3]; 25/92.5% RH-5 days): 0.03%; ee % ([3]; 25/92.5% RH-5 days): 98.77%; impurity at RRT 0.31 ([3]; 25/92.5% RH-5 days): 0.03; Appearance ([3]; 25/92.5% RH-10 days): White; TRS(%) total impurity content ([3]; 25/92.5% RH-10 days): 0.06%; ee % ([3]; 25/92.5% RH-10 days): 98.958%; impurity at RRT 0.31 ([3]; 25/92.5% RH-10 days): 0.03; impurity at RRT 1.40 ([3]; 25/92.5% RH-10 days): 0.03; Appearance ([3]; 40° C./75% RH-1 month): White; TRS(%) total impurity content ([3]; 40° C./75% RH-1 month): 0.02%; ee % ([3]; 40° C./75% RH-1 month): 99.380%; impurity at RRT 0.31 ([3]; 40° C./75% RH-1 month): 0.02; Appearance ([3]; 40° C./75% RH-2 months): White; TRS(%) total impurity content ([3]; 40° C./75% RH-2 months): 0.02%; ee % ([3]; 40° C./75% RH-2 months): 100%; impurity at RRT 0.91 ([3]; 40° C./75% RH-2 months): 0.02; Appearance ([3]; 40° C./75% RH-3 months): White; TRS(%) total impurity content ([3]; 40° C./75% RH-3 months): 0%; ee % ([3]; 40° C./75% RH-3 months): 100%; Appearance ([3]; 40° C./75% RH-10 days): White; TRS(%) total impurity content ([3]; 40° C./75% RH-10 days): 0.04%; ee % ([3]; 40° C./75% RH-10 days): 99.164%; impurity at RRT 0.23 ([3]; 40° C./75% RH-10 days): 0.02; impurity at RRT 0.31 ([3]; 40° C./75% RH-10 days): 0.02; Appearance ([3]; 60° C.-5 days): White; TRS(%) total impurity content ([3]; 60° C.-5 days): 0.06%; ee % ([3]; 60° C.-5 days): 98.632%; impurity at RRT 0.23 ([3]; 60° C.-5 days): 0.03; impurity at RRT 0.31 ([3]; 60° C.-5 days): 0.03; Appearance ([3]; 60° C.-10 days): White; TRS(%) total impurity content ([3]; 60° C.-10 days): 0.10%; ee % ([3]; 60° C.-10 days): 98.900%; impurity at RRT 0.23 ([3]; 60° C.-10 days): 0.02; impurity at RRT 0.31 ([3]; 60° C.-10 days): 0.03; impurity at RRT 1.08 ([3]; 60° C.-10 days): 0.05; Appearance ([3]; 60° C./75% RH-1 month): White; TRS(%) total impurity content ([3]; 60° C./75% RH-1 month): 0.08%; ee % ([3]; 60° C./75% RH-1 month): 100%; impurity at RRT 0.23 ([3]; 60° C./75% RH-1 month): 0.02; impurity at RRT 0.98 ([3]; 60° C./75% RH-1 month): 0.03; impurity at RRT 0.99 ([3]; 60° C./75% RH-1 month): 0.03; Appearance ([3]; 60° C./75% RH-10 days): White; TRS(%) total impurity content ([3]; 60° C./75% RH-10 days): 0.03%; ee % ([3]; 60° C./75% RH-10 days): 98.872%; impurity at RRT 0.23 ([3]; 60° C./75% RH-10 days): 0.03; stability (impurity content) under high temperature and high humidity conditions ([3]; conclusion in words): the stability is good; category of hygroscopicity [4]: non-hygroscopic or hardly hygroscopic
